Values of other authors as cited in patent US20120301405A1, “Simple Mechanical Procedure and Product for Deterring Substance Abuse” (priority 2005, published 2012).
Where two headings read alike, the source gives them in different places.

Experiments:
[1] = for Time to Peak (onset of action, in hours): maximum levels of the drug in the blood after a given dose; for Elimination ½-Life (h) [active metabolite]: value in square brackets
[2] = tested on: benzodiazepine receptors; settings: for AED (Approximate Equivalent Dose): based on clinical experience
[3] = atypical benzodiazepine receptor ligands table

Compound	Time to Peak (onset of action, in hours) [1]	Elimination ½-Life ([1]; parent drug) [h]	AED (Approximate Equivalent Dose) ([2]; benzodiazepine table) [mg]	also measured
Cc1nnc2n1-c1ccc(Cl)cc1C(c1ccccc1)=NC2 [Alprazolam]	1 to 2 h	6 to 12	0.5	–
CC(C)(C)OC(=O)c1ncn2c1[C@@H]1CCCN1C(=O)c1c(Br)cccc1-2 [Bretazenil]	–	2.5	0.5	–
O=C1CN=C(c2ccccn2)c2cc(Br)ccc2N1 [Bromazepam]	1 to 3 h	10 to 20	5 to 6	–
Cc1nnc2n1-c1sc(Br)cc1C(c1ccccc1Cl)=NC2 [Brotizolam]	0.5-2^ hours	4 to 5	0.25	–
CNC1=Nc2ccc(Cl)cc2C(c2ccccc2)=[N+]([O-])C1 [Chlordiazepoxide]	–	–	–	elimination half-life in the elderly compared to younger individuals ([1]; elderly vs younger individuals): twice as long
N#CCCN1C(=O)C(O)N=C(c2ccccc2F)c2cc(Cl)ccc21 (centres unmarked) [Cinolazepam]	0.5-2^ hours	9	40	–
CN1C(=O)CC(=O)N(c2ccccc2)c2cc(Cl)ccc21 [Clobazam]	–	–	–	Elimination ½-Life [1, 3]: 8 to 60 h; AED (Approximate Equivalent Dose) [2, 3]: 20 mg
O=C1CN=C(c2ccccc2Cl)c2cc([N+](=O)[O-])ccc2N1 [Clonazepam]	1 to 4 h	18 to 50	0.5	–
O=C(O)C1N=C(c2ccccc2)c2cc(Cl)ccc2NC1=O (centres unmarked) [Clorazepate]	variable	36 to 100	15	–
CCc1cc2c(s1)N(C)C(=O)CN=C2c1ccccc1Cl [Clotiazepam]	1 to 3 h	6 to 18	5 to 10	–
O=C1CN2CCOC2(c2ccccc2Cl)c2cc(Cl)ccc2N1 (centres unmarked) [Cloxazolam]	–	–	1	–
O=C1CN=C(c2ccccc2Cl)c2cc(Cl)ccc2N1 [Delorazepam]	1 to 2 h	60 to 140	1	–
CN1C(=O)CN=C(c2ccccc2)c2cc(Cl)ccc21 [Diazepam]	1 to 1.5 h	20 to 100	10	Elimination ½-Life (h) [active metabolite] [1]: [36-200] h; equivalent dose in an elderly individual on lorazepam versus what would be expected in a younger individual ([2]; elderly individual on lorazepam): up to half
Clc1ccc2c(c1)C(c1ccccc1)=NCc1nncn1-2 [Estazolam]	1 to 5 h	10 to 24	1 to 2	–
CN1CCN(C(=O)O[C@H]2c3nccnc3C(=O)N2c2ccc(Cl)cn2)CC1 [Eszopiclone]	–	–	–	Elimination ½-Life [1, 3]: 6 h
CCc1cc2c(s1)-n1c(C)nnc1CN=C2c1ccccc1Cl [Etizolam]	1 to 2 h	6	1	–
CCOC(=O)c1ncn2c1CN(C)C(=O)c1cc(F)ccc1-2 [Flumazenil]	–	–	–	Elimination ½-Life [1, 3]: 1 h
CN1C(=O)CN=C(c2ccccc2F)c2cc([N+](=O)[O-])ccc21 [Flunitrazepam]	0.5-3^ hours	18 to 26	1	–
CCN(CC)CCN1C(=O)CN=C(c2ccccc2F)c2cc(Cl)ccc21 [Flurazepam]	1 to 1.5 h	40 to 250	15 to 30	–
O=C1CN=C(c2ccccc2F)c2cc(Cl)ccc2N1CC1CC1 [Flutoprazepam]	0.5-9^ hours	60 to 90	2 to 3	–
O=C1CN=C(c2ccccc2)c2cc(Cl)ccc2N1CC(F)(F)F [Halazepam]	1 to 3 h	30 to 100	20 to 40	–

Compound	Time to Peak (onset of action, in hours) [1]	Elimination ½-Life ([1]; parent drug) [h]	AED (Approximate Equivalent Dose) ([2]; benzodiazepine table) [mg]	also measured
CC1=CC(=O)N2CC(=O)N(C)c3ccc(Cl)cc3C2(c2ccccc2)O1 (centres unmarked) [Ketazolam]	2.5-3^ hours	30 to 100	15 to 30	Elimination ½-Life (h) [active metabolite] [1]: [36-200] h
CN1CCN(/C=C2\N=C3CN=C(c4ccccc4Cl)c4cc([N+](=O)[O-])ccc4N3C2=O)CC1 [Loprazolam]	0.5-4^ hours	6 to 12	1 to 2	–
O=C1Nc2ccc(Cl)cc2C(c2ccccc2Cl)=NC1O (centres unmarked) [Lorazepam]	2 to 4 h	10 to 20	1	–
CN1C(=O)C(O)N=C(c2ccccc2Cl)c2cc(Cl)ccc21 (centres unmarked) [Lormetazepam]	0.5-2^ hours	10 to 12	1 to 2	–
CN1CCN=C(c2ccccc2)c2cc(Cl)ccc21 [Medazepam]	–	36 to 200	10	–
Cc1ncc2n1-c1ccc(Cl)cc1C(c1ccccc1F)=NC2 [Midazolam]	0.5-1^ hours	–	5 to 8	–
CN1C(=O)CN=C(c2ccccc2)c2cc([N+](=O)[O-])ccc21 [Nimetazepam]	0.5-3^ hours	14 to 30	5	–
O=C1CN=C(c2ccccc2)c2cc([N+](=O)[O-])ccc2N1 [Nitrazepam]	0.5-7^ hours	15 to 38	10	–
O=C1CN=C(c2ccccc2)c2cc(Cl)ccc2N1 [Nordazepam]	–	50 to 120	10	–
O=C1Nc2ccc(Cl)cc2C(c2ccccc2)=NC1O (centres unmarked) [Oxazepam]	3 to 4 h	4 to 15	–	–
O=C1CN=C(c2ccccc2Cl)c2cc(Br)ccc2N1 [Phenazepam]	1.5-4^ hours	60	1	–
C#CCN1C(=O)CN=C(c2ccccc2)c2cc(Cl)ccc21 [Pinazepam]	–	40 to 100	20	–
O=C1CN=C(c2ccccc2)c2cc(Cl)ccc2N1CC1CC1 [Prazepam]	2 to 6 h	36 to 200	20	–
Cc1c2c(cn1C)NC(=O)CN=C2c1ccccc1 [Premazepam]	2 to 6 h	10 to 13	3.75	–
Fc1ccccc1C1=NCC(=S)N(CC(F)(F)F)c2ccc(Cl)cc21 [Quazepam]	1 to 5 h	39 to 120	20	–
CN1C(=O)C(O)N=C(c2ccccc2)c2cc(Cl)ccc21 (centres unmarked) [Temazepam]	0.5-3^ hours	8 to 22	20	–
CN1C(=O)CN=C(C2=CCCCC2)c2cc(Cl)ccc21 [Tetrazepam]	1 to 3 h	3 to 26	100	–
Cc1nnc2n1-c1ccc(Cl)cc1C(c1ccccc1Cl)=NC2 [Triazolam]	0.5-2^ hours	2	0.25	–
CCN(C(C)=O)c1cccc(-c2ccnc3c(C#N)cnn23)c1 [Zaleplon]	–	–	–	AED (Approximate Equivalent Dose) [2, 3]: 20 mg
Cc1ccc(-c2nc3ccc(C)cn3c2CC(=O)N(C)C)cc1 [Zolpidem]	–	–	–	Elimination ½-Life [1, 3]: 2.6 h; AED (Approximate Equivalent Dose) [2, 3]: 20 mg
CN1CCN(C(=O)OC2c3nccnc3C(=O)N2c2ccc(Cl)cn2)CC1 (centres unmarked) [Zopiclone]	–	–	–	Elimination ½-Life [1, 3]: 4 to 6 h; AED (Approximate Equivalent Dose) [2, 3]: 15 mg
